Assays:
[1] = target: T1, p65ΔC14 (Homo sapiens, UniProt Q04206); test: GILZ binding ELISA with partial length p65; conditions: detected with anti-p65 mAb
T1 construct: purchased Active Motif, Carlsbad, Calif
Description: (§3) Binding of the plate-bound r-p65 with cytoplasmic GILZ and the plate-bound GILZ with nuclear p65 was detected with anti-GILZ mAb or anti-p65 mAb, respectively, followed by trinitrobenzene substrate. […] Absorbance at 650 nm was measured between 0 and 300 s with a mixing time of 0.30 s and a 5-s interval between readings.

[2] = Circular dichroism; type: physicochemical
Description: CD measurements can be recorded on a JASCO model, J-710 spectropolarimeter, (Jasco Inc, Easton, Md.) as described previously. The samples can be prepared by dissolving lyophilized GILZ peptide or control peptides at 100 μM concentration in citrate buffer (1 mM sodium citrate, 1 mM sodium borate, 1 mM sodium phosphate, 15 mM NaCl) with pH adjusted at 7.0. CD spectra can be collected using a 1 cm path-length quartz cuvette at 50° C. or 90° C. in the 190- to 270-nm wavelength range with a 0.5 nm resolution and a scan rate of 200 nm/min. Reported spectra can represent the unsmoothed averages of 30 scans. Each spectrum can be measured three times with individually prepared solutions. Raw CD signals (in millidegrees) can be converted to mean residue molar ellipticity (θ) in deg cm^2/dmol using the formula [θ] MRW 5 [θ]obs/101cn, where θ obs is the observed ellipticity, 1 is the pathlength in centimeters, c is the molar concentration of peptide, and n is the number of residues in the peptide. To determine 0% PPII helical content CD spectra can be recorded with GILZ-peptide dissolved in 5M CaCl2.

[3] = target: T2, recombinant human p65 protein (r-p65) (Homo sapiens, UniProt Q04206); test: GILZ:p65 direct binding and kinetics by modified ELISA
T2 construct: control-P at varying concentrations was probed with full-length r-p65-DDK; purchased OriGene Technologies Inc., Rockville, Md
Description: To detect direct interaction, ELISA plates were coated with increasing concentrations of the GILZ protein and probed with increasing concentrations of the p65 protein followed by detection with anti-human GILZ mAb. To detect binding of cellular GILZ and p65, ELISA plates were coated with the p65 protein (20 ng), and probed with the cytoplasmic fraction from T cells. Binding of the plate bound p65 with the cytoplasmic GILZ protein was detected with anti-human GILZ mAb. Alternatively, wells coated with the GILZ-GST protein (20 ng) were probed with the nuclear fractions from T cells and the GILZ:nuclear p65 binding was detected with anti-human p65 mAb. The bound complex was detected with TNB at absorbance of 450 nm.
as §3

[4] = test system: CD4+ splenocytes/LNC from R-EAE mice; test: Ex vivo cytokine secretion (ELISA) by CD4+ cells from treated R-EAE mice; type: in vivo, mouse
Description: (§1) Data represent average±S.D. from two experiments (n=9/group). (C)-(H) show GILZ-peptide treatment suppresses Th1 cytokines in R-EAE. […] C, proliferative responses of CD4+ splenocytes are plotted as Δcpm±S.E. #, p<0.05 as compared with the responses of cells from vehicle-treated mice. Supernatant collected at 48 h from separate CD4+ splenocyte cultures were assessed for (D) IL-12, (E) IFN-γ, (F) IL-17, (G) IL-10, and (H) TGF-β by ELISA. * and # represent p<0.05 as compared with vehicle or control peptide-treated groups, respectively.
Supernatants collected 48 hrs later were assessed for cytokines using Opt EIA kits according to the manufacturer's recommendations (BD PharMingen). Differences between the groups in the mean clinical score and cytokine secretion were determined by a one-way ANOVA with Tukey's posthoc. Results were considered significant at p<0.05.
(§2) Supernatants collected at 24 and 48 h were assessed for specific cytokines using the OptEIA kits (BD Biosciences). Proliferation assays included parallel cultures for 72 h with a final 18-h pulse with [^3H]thymidine measured by liquid scintillation counting (Microbeta, Turku, Finland).

[5] = test system: CD4+ splenocytes from R-EAE mice; test: Ex vivo proliferation of CD4+ splenocytes from treated R-EAE mice; type: in vivo, mouse; conditions: for proliferative responses (mean Δcpm) to PLP139-151: mice treated on day 0, cells 45 days post-immunization; for average proliferative response of unstimulated CD4+ splenocytes: in cpm
Description: as §1, §2

[6] = test system: CD4+ LNC from PLP primed SJL/J mice; test: In vitro proliferation ([3H]-thymidine) of PLP139-151 restimulated CD4+ LNC from primed SJL/J mice; type: cell-based, mouse; conditions: for proliferative response, in words: vs PLP139-151 alone or vs r-GILZ
Description: CD4+ lymph node cells (LNC) isolated from the draining lymph nodes harvested from SJL/J mice 10 days after immunization with PLP139-151 were cultured in 96-well plates at […] in complete RPMI and restimulated with the PLP peptide (40 μg/ml) for 72 h, including a final 16-h pulse with [^3H]-thymidine. […] Separate cultures stimulated with ova (40 μg/ml) served as control for antigen specificity. Irradiated splenocytes from syngenic mice were used as antigen presenting cells (APC). Cultures were harvested onto glass fiber mats using a Skatron harvester (Skatron, Sterling, Va.), and the levels of [^3H]-thymidine incorporation were determined by liquid scintillation counting (Microbeta; Wallac, Turku, Finland). Results were confirmed by replicate experiments. Data are expressed as Δcpm (counts/min incorporated in antigen-stimulated culture-counts/min incorporated by control unstimulated culture).
as §2

[7] = test system: PPD stimulated human CD4+ T cells; test: Cytokine secretion by PPD-stimulated human CD4+ T cells (ELISA); type: cell-based; conditions: 24 h, complex with chariot peptide
Description: Purified CD4+ T cells isolated from PBMC by magnetic cell separation (Miltenyi Biotech, Germany), were seeded with irradiated autologous PBMC (T cells depleted) as APC at 1:1.5 ratio in serum-free RPMI (with 5% penicillin/streptomycin), and stimulated with PPD (20 μm/ml) alone or in the presence of dexamethasone (100 μm/ml) or 20:1 M complex of chariot peptide with GILZ protein (0.7 μm/ml)/anti-human GILZ mAb (1 μm/ml)/anti-human p65 mAb (1 μm/ml)/control antibody (1 μm/ml). Supernatants collected at 24 hrs were assessed for cytokines including human IFN-γ, TNF-α, IL-12 p40 and IL-10 using BD OptEIA™ kits. Differences in the secretion of cytokines between the groups were determined by one way ANOVA followed by Tukey's post-hoc analysis (see FIG. 4).

[8] = Example 1, LNC 45 days post-immunization, PLP139-151 and/or MBP87-99, vs vehicle/control peptide
[9] = Example 1, LNC 45 days post-immunization, PLP139-151 or MBP87-99, vs vehicle/control peptide
[10] = MBP87-99 stimulation, mice treated on day 0
[11] = PLP139-151 re-stimulation, mice treated on day 0
[12] = mice treated 12 days post-immunization

T2 sequence (Q04206 whole entry): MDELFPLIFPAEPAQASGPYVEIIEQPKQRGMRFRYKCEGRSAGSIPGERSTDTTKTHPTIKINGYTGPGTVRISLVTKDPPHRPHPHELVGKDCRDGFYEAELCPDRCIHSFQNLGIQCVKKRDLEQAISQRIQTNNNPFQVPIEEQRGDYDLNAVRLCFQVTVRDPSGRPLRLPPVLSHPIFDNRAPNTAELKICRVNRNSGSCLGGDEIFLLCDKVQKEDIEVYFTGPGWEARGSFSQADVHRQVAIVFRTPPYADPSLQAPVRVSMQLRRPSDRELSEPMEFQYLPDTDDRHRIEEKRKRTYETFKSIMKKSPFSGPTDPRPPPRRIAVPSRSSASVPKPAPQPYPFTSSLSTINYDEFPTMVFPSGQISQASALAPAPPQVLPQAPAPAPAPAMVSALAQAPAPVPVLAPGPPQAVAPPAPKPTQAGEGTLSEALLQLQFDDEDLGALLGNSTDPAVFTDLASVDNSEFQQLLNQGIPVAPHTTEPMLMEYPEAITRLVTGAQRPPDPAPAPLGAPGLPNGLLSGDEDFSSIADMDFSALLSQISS
T1 sequence (Q04206 1-537 limits assumed, stated change not applied): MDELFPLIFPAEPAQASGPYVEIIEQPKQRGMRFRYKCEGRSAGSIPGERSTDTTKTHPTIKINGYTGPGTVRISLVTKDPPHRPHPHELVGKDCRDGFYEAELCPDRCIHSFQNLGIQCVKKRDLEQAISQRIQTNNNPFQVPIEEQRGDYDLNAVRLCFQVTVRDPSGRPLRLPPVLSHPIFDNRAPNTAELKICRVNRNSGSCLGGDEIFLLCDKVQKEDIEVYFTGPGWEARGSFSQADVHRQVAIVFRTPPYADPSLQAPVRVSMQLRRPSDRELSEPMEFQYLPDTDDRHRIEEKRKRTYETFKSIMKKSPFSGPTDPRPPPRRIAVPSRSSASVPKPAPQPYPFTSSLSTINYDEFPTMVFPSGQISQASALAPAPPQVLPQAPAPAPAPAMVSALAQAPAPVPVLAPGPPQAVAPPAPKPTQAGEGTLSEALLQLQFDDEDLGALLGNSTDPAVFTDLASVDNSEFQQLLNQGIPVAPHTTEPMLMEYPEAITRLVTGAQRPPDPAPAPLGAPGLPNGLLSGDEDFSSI

Row | Substance | IL-10 secretion [4, 8] | IFN-γ secretion [4, 9] | IL-12 secretion [4, 9] | TNF-α secretion [4, 9] | IL-10 secretion [4, 10] [pg/mL] | TGF-β secretion [4, 10] [pg/mL] | IFN-γ secretion [4, 11] [pg/mL] | IL-12 secretion [4, 11] [pg/mL] | IL-17 secretion [4, 11] [pg/mL] | proliferative responses (mean Δcpm) to PLP139-151 [5] | average proliferative response of unstimulated CD4+ splenocytes ([5]; mice treated on day 0) | proliferative response, in words [6] | also measured
1 | Ac-CLSPEEPAPESPQVPEAPGGSAV-NH2 [GILZ-P] | higher | significantly reduced | significantly reduced | significantly reduced | 1850.8 ± 90 | 33.31 ± 4 | 96.5 ± 7.1 | 12.7 ± 0.47 | 10.85 ± 0.3 | 5,733±208 cpm | 2,376±602 | significantly decreased proliferative response | absorbance of plate-bound agent probed with p65ΔC14 [1]: Absorbance over background was not observed; mean residue molar ellipticity θ, maximum at 238 nm ([2]; 50° C.): 1.12×10^3 deg cm^2 dmol^−1; mean residue molar ellipticity θ, minimum at 200 nm ([2]; 50° C.): −20.03×10^3 deg·cm^2/dmol; mean residue molar ellipticity θ @ 204 nM ([2]; 90° C.): −11.37×10^3 deg cm^2/dmol; mean residue ellipticity minimum at 205 nM ([2]; in 5M CaCl2): −8.84×10^3 deg cm^2/dmol; time at which maximum absorbance was reached in binding with r-p65 [3]: 38 s; adjusted velocity of the interaction with r-p65 ([3]; at 1:4 molar concentrations): 25 s⁻¹; p65 binding (absorbance) of plate-bound agent probed with full-length r-p65 ([3]; varying coating concentrations, 40 μM r-p65): decreased with decreasing concentrations; IFN-γ secretion [4, 10]: 97.4 ± 6.9 pg/mL; IL-12 secretion [4, 10]: 28.4 ± 1.6 pg/mL; IL-17 secretion [4, 10]: 10.43 ± 0.4 pg/mL; IL-10 secretion ([4]; PLP139-151 stimulation, mice treated on day 0): 2316 ± 52.9 pg/mL; IL-12 secretion, in words [4, 12]: significantly lower; reduction in IFN-γ, in words [4, 12]: not significant; average proliferative response of unstimulated CD4+ splenocytes ([5]; mice treated on day 12): 1,823±532; proliferative response (mean Δcpm), maximum inhibition ([6]; 250 μM GILZ-P with Pep-1): 1404±106 cpm; proliferative response (Δcpm) ([6]; GILZ peptide in the absence of Pep-1): 6663±173 cpm; proliferative response (Δcpm) ([6]; GILZ peptide in the absence of Pep-1, listed as GILZ peptide): 6663+/−173 cpm; proliferative response (Δcpm) ([6]; peptide 500 μM in complex with Pep-1, PLP 40 μg/ml, 72 h): 1702+/−217 cpm; proliferative response, in words ([6]; listed as GILZ peptide): greater inhibition than those treated with r-GILZ at all concentrations
2 | r-GILZ: recombinant glucocorticoid induced leucine zipper protein (Abnova; OriGene with C-terminal DDK) | higher | significantly reduced | significantly reduced | significantly reduced | 1667 ± 63.7 | 31.7 ± 0.8 | 100.5 ± 6.8 | 22.5 ± 01.05 | 10.66 ± 0.2 | 16,880±264 cpm | 2,037±603 | significantly decreased proliferative response | IL-10 secretion [7]: significantly elevated; secretion of IFN-γ [7]: significantly reduced; secretion of IL-12 [7]: significantly reduced; proliferative response (Δcpm) ([6]; r-GILZ 200 ng with Pep-1, PLP 40 μg/ml, 72 h): 4658+/−266 cpm
